Columns and labels:
Assay type in all cases: functional
CCRF-CEM = assay: Antiproliferative activity against human CCRF-CEM cells
HL-60(TB) = assay: Antiproliferative activity against human HL-60(TB) cells
K562 = assay: Antiproliferative activity against human K562 cells
MOLT-4 = assay: Antiproliferative activity against human MOLT4 cells
[1] = Antiproliferative activity against human […] cells
A549 = assay: Antiproliferative activity against human A549 cells
EKVX = assay: Antiproliferative activity against human EKVX cells
HOP-62 = assay: Antiproliferative activity against human HOP62 cells
HOP-92 = assay: Antiproliferative activity against human HOP92 cells
NCI-H226 = assay: Antiproliferative activity against human NCI-H226 cells
NCI-H23 = assay: Antiproliferative activity against human NCI-H23 cells
NCI-H322M = assay: Antiproliferative activity against human NCI-H322M cells
NCI-H460 = assay: Antiproliferative activity against human NCI-H460 cells
NCI-H522 = assay: Antiproliferative activity against human NCI-H522 cells
COLO 205 = assay: Antiproliferative activity against human COLO205 cells
HCC 2998 = assay: Antiproliferative activity against human HCC2998 cells
HCT-116 = assay: Antiproliferative activity against human HCT116 cells
HCT-15 = assay: Antiproliferative activity against human HCT15 cells
HT-29 = assay: Antiproliferative activity against human HT-29 cells
KM12 = assay: Antiproliferative activity against human KM12 cells
SW-620 = assay: Antiproliferative activity against human SW620 cells
LOX IMVI = assay: Antiproliferative activity against human LOXIMVI cells
Malme-3M = assay: Antiproliferative activity against human MALME-3M cells
M14 = assay: Antiproliferative activity against human M14 cells
SK-MEL-2 = assay: Antiproliferative activity against human SK-MEL-2 cells
SK-MEL-28 = assay: Antiproliferative activity against human SK-MEL-28 cells
SK-MEL-5 = assay: Antiproliferative activity against human SK-MEL-5 cells
UACC-257 = assay: Antiproliferative activity against human UACC257 cells
UACC-62 = assay: Antiproliferative activity against human UACC62 cells
SF-268 = assay: Antiproliferative activity against human SF268 cells
SF-295 = assay: Antiproliferative activity against human SF295 cells
SF-539 = assay: Antiproliferative activity against human SF539 cells
SNB-19 = assay: Antiproliferative activity against human SNB19 cells
SNB-75 = assay: Antiproliferative activity against human SNB75 cells
U-251 = assay: Antiproliferative activity against human U251 cells
IGROV-1 = assay: Antiproliferative activity against human IGROV1 cells
OVCAR-3 = assay: Antiproliferative activity against human OVCAR-3 cells
OVCAR-4 = assay: Antiproliferative activity against human OVCAR4 cells
OVCAR-5 = assay: Antiproliferative activity against human OVCAR5 cells
OVCAR-8 = assay: Antiproliferative activity against human OVCAR8 cells
SK-OV-3 = assay: Antiproliferative activity against human SKOV3 cells
786-0 = assay: Antiproliferative activity against human 786-0 cells
A498 = assay: Antiproliferative activity against human A498 cells
ACHN = assay: Antiproliferative activity against human ACHN cells
CAKI-1 = assay: Antiproliferative activity against human Caki1 cells
RXF 393 = assay: Antiproliferative activity against human RXF393 cells
SN12C = assay: Antiproliferative activity against human SN12C cells
TK-10 = assay: Antiproliferative activity against human TK10 cells
UO-31 = assay: Antiproliferative activity against human UO31 cells
BT-549 = assay: Antiproliferative activity against human BT549 cells
[2] = Antiproliferative activity against human Hs 578T cells
MCF7 = assay: Antiproliferative activity against human MCF7 cells
MDA-MB-231 = assay: Antiproliferative activity against human MDA-MB-231 cells
MDA-MB-435 = assay: Antiproliferative activity against human MDA-MB-435 cells
T47D = assay: Antiproliferative activity against human T47D cells
DU-145 = assay: Antiproliferative activity against human DU145 cells
PC-3 = assay: Antiproliferative activity against human PC3 cells
SR = assay: Antiproliferative activity against human SR cells

CCOC(=O)C[C@H]1[C@@H](O[Si](C)(C)C(C)(C)C)[C@H](n2cnc3c(NC(=O)Nc4ccccc4)ncnc32)O[C@@H]1CNC(=O)NC
GI50 (CCRF-CEM): 6.69 µM | GI50 (HL-60(TB)): 0.00301 µM | GI50 (K562): 3.59 µM | GI50 (MOLT-4): 2.39 µM | GI50 [1]: 1.09 µM | GI50 (A549): 4.18 µM | GI50 (EKVX): 17.7 µM | GI50 (HOP-62): 8.96 µM | GI50 (HOP-92): < 0.01 µM | GI50 (NCI-H226): > 100 µM | GI50 (NCI-H23): 33.3 µM | GI50 (NCI-H322M): > 100 µM | GI50 (NCI-H460): 5.54 µM | GI50 (NCI-H522): 4.36 µM | GI50 (COLO 205): 3.84 µM | GI50 (HCC 2998): > 100 µM | GI50 (HCT-116): 3.2 µM | GI50 (HCT-15): 8.5 µM | GI50 (HT-29): 4.2 µM | GI50 (KM12): 3.95 µM | GI50 (SW-620): 4.8 µM | GI50 (LOX IMVI): 5.46 µM | GI50 (Malme-3M): 10.3 µM | GI50 (M14): 2.51 µM | GI50 (SK-MEL-2): 5.42 µM | GI50 (SK-MEL-28): 6.85 µM | GI50 (SK-MEL-5): 4.34 µM | GI50 (UACC-257): 5.68 µM | GI50 (UACC-62): > 100 µM | GI50 (SF-268): 6.53 µM | GI50 (SF-295): 5.73 µM | GI50 (SF-539): 5.19 µM | GI50 (SNB-19): 29 µM | GI50 (SNB-75): 4.56 µM | GI50 (U-251): 4.69 µM | GI50 (IGROV-1): 3.85 µM | GI50 (OVCAR-3): 4.59 µM | GI50 (OVCAR-4): 12.3 µM | GI50 (OVCAR-5): 31.1 µM | GI50 (OVCAR-8): 4.92 µM | GI50 (SK-OV-3): 21 µM | GI50 (786-0): 2 µM | GI50 (A498): 3.34 µM | GI50 (ACHN): 8.55 µM | GI50 (CAKI-1): 29.7 µM | GI50 (RXF 393): 2.01 µM | GI50 (SN12C): 9.1 µM | GI50 (TK-10): 12.4 µM | GI50 (UO-31): 12.1 µM | GI50 (BT-549): > 100 µM | GI50 [2]: 3.6 µM | GI50 (MCF7): 3.42 µM | GI50 (MDA-MB-231): 3.96 µM | GI50 (MDA-MB-435): 6.21 µM | GI50 (T47D): 2.55 µM | GI50 (DU-145): 4.97 µM | GI50 (PC-3): 2.25 µM | GI50 (SR): 2.23 µM

Source: ChEMBL document CHEMBL1154382, “Preliminary SAR analysis of novel antiproliferative N(6),5'-bis-ureidoadenosine derivatives” (2009)
